The text below walks through data of patent US20020058048A1, “TOPICAL CAPSAICIN PREPARATION” (priority 1998, published 2002).

Structures are written as SMILES. Several values for one entry are separate records, joined by “and”; a condition that tells them apart may be missing. Identical values can stand only once.

One assay relates to cornea of rats. Nature of the assay: Eye-wiping reflex caused by capsaicin applied to the cornea (eye-wiping method of Jancso). The following applies: for Number of wiping, Second: challenge with 0.1% capsaicin solution without surfactant 2 hours after pretreatment with 0.1% capsaicin. The format is in vivo, rat. The text has this: 2. The effect of polyoxyethylene (60) hydrogenated castor oil on the eye-wiping reflex caused by capsaicin and the desensitization to chemical stimuli was studied according to the eye-wiping method reported by Jancso N. et al., in “Direct evidence for neurogenic inflammation and its prevention by denervation and by pretreatment with capsaicin”, Br. J. Phamac. Chemother. 31: 138-151, 1967.
When one drop of 0.1% capsaicin solution was applied to the cornea of rats, the animal immediately began to wipe the cornea with front paws and continued the wiping for about 1 minute.
See, Table 2. […] See, Table 3.
4. The effect of various surfactants on the desensitization of sensory nerves by 0.1% capsaicin was evaluated using the procedure of Test 2.

A further assay relates to hind-limb of rats. As to the kind of experiment: Withdrawal latency to thermal stimuli (42° C. water bath) of hind-limb in rats during sensitization by capsaicin. The class given is in vivo, rat. The following applies: 0.1% capsaicin solution; for Withdrawal latency time, One hour after appln.: 42° C. water bath; for Withdrawal latency time, Before appln.: baseline before application. The method, then:
1. 0.1% capsaicin solutions containing varying amount of polyoxyethylene (60) hydrogenated castor oil were prepared by dissolving 0.1 g of capsaicin and 0, 3, 9 or 18g of the surfactant in 26.4 ml of ethanol and then diluting with distilled water q.s. to make a total volume of 100 ml.
Each of 0.1% capsaicin solution thus prepared was applied to the hind-limb of rats. One hour after the application, the limb was placed in a water bath warmed at 42° C. and the length of time (in seconds) elapsed until when the rat withdrew the treated limb from the water bath was determined. […]

Where [1] appears, read: polyoxyethylene (60) hydrogenated castor oil 0%.
The mark [2] stands for this setting: polyoxyethylene (60) hydrogenated castor oil 3%.
[3] abbreviates: polyoxyethylene (60) hydrogenated castor oil 9%.
The mark [4] stands for this setting: polyoxyethylene (60) hydrogenated castor oil 18%.

Take `COc1cc(CNC(=O)CCCC/C=C/C(C)C)ccc1O` [capsaicin]: the “Number of wiping, Second” value is “significantly reduced and 9.7 ± 1.6” in the assay with cornea of rats (surfactant 0%); “significantly reduced and 11.5 ± 0.9” in the assay on cornea of rats (surfactant 3%); “significantly reduced and 13 ± 0.7” in the assay on cornea of rats (surfactant 9%); “significantly reduced and 11.7 ± 0.6” with cornea of rats (surfactant 18%). Also, the “Duration of wiping of the cornea with front paws” value in the assay on cornea of rats (one drop applied to the cornea of rats) is “about 1 minute”. Further, the “Number of wiping, First” value was 21.5 ± 1.6 in the assay with cornea of rats (pretreatment drop of 0.1% capsaicin solution with surfactant 0%); “not virtually affected and 24 ± 2.1” with cornea of rats (pretreatment drop of 0.1% capsaicin solution with surfactant 3%); “not virtually affected and 23.5 ± 1.1” with cornea of rats (pretreatment drop of 0.1% capsaicin solution with surfactant 9%); “not virtually affected and 22 ± 1.4” with cornea of rats (pretreatment drop of 0.1% capsaicin solution with surfactant 18%). Also, the “Withdrawal latency time, One hour after appln.” value is “remarkably shortened and 2.45 ± 0.32 sec” with hind-limb of rats (setting [1]); “slightly shortened and 20.29 ± 4.18 sec” in the assay with hind-limb of rats (setting [2]); “not affected significantly and 30 ± 0 sec” in the assay on hind-limb of rats (setting [3]); “not affected significantly and 27.28 ± 2.35 sec” with hind-limb of rats (setting [4]). Also, the “Withdrawal latency time, Before appln.” value in the assay with hind-limb of rats (setting [1]), with hind-limb of rats (setting [2]), in the assay with hind-limb of rats (setting [3]) and in the assay with hind-limb of rats (setting [4]) was 30 ± 0 s each time.
